This is an account of results in patent publication US11014941B2, “Pyrrolopyrimidine derivatives useful as inhibitors of influenza virus replication” (priority 2017, dated 2021).

Sequence of Influenza PB2 (P03428 whole entry, looked up): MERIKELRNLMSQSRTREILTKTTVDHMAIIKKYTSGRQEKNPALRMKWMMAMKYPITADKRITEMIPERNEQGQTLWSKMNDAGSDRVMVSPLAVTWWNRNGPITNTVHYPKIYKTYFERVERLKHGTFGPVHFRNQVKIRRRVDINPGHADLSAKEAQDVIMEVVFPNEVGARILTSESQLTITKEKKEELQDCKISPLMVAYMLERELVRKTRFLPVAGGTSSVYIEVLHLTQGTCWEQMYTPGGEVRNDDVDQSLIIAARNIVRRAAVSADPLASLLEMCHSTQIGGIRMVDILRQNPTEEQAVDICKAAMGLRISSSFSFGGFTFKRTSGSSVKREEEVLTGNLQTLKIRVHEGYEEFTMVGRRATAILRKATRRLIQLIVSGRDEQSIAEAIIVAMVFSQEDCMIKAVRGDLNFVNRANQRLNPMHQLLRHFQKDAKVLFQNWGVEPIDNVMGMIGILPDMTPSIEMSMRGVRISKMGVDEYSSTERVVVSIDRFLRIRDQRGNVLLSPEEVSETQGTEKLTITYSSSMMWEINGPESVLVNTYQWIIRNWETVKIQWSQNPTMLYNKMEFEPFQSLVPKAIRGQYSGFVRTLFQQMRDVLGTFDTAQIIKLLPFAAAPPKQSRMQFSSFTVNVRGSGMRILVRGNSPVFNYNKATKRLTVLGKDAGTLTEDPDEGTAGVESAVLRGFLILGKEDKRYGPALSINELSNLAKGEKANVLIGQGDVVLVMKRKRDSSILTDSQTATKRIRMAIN

This experiment concerns the target Influenza PB2 (Influenza A virus, UniProt P03428). Put plainly: biochemical. The format is binding. The note with it: read-out: Influenza PB2 affinity, IC50.
Usually IC50 stands for the concentration that inhibits the measured activity by half. As to `CCOC(=O)[C@@H]1C2CCC(CC2)[C@H]1n1cc(Cl)c2cnc(-c3c[nH]c4ncc(C#N)cc34)nc21` [Compound B219], the IC50 is > 100 µM.
As for `N#Cc1cnccc1-c1cn([C@@H]2C3CCC(CC3)[C@H]2C(=O)O)c2nc(-c3c[nH]c4ncc(Cl)cc34)ncc12` [Compound B220], the figure is 10 to 100 µM.
As for `CNC(=O)C1=C(n2cc(F)c3cnc(-c4c[nH]c5ncc(Cl)cc45)nc32)C2CCC1CC2` [Compound B221], the IC50 was 1 to 10 µM.
For the molecule `O=C(O)C1=C(n2cc(F)c3cnc(-c4c[nH]c5ncc(F)cc45)nc32)C2CCC1CC2` [Compound B222], the IC50 was < 1 µM.
As for `CN(C)C(=O)Cn1cc(-c2c[nH]c3ncc(F)cc23)c2cncnc21` [Compound C1], the figure is 10 to 100 µM; as for `CN(C)C(=O)CCn1cc(-c2c[nH]c3ncc(F)cc23)c2cncnc21` [Compound C2], > 100 µM; as for `COC(=O)CCn1cc(-c2c[nH]c3ncc(F)cc23)c2cncnc21` [Compound C3], > 100 µM.
As for `O=C(O)Cn1cc(-c2c[nH]c3ncc(F)cc23)c2cncnc21` [Compound C4], the figure is > 100 µM; as for `O=C(O)CCn1cc(-c2c[nH]c3ncc(F)cc23)c2cncnc21` [Compound C5], > 100 µM; as for `CC(Cn1cc(-c2c[nH]c3ncc(F)cc23)c2cncnc21)C(=O)N(C)C` (stereo not drawn) [Compound C6], 10 to 100 µM.
The same measure for `CC(Cn1cc(-c2c[nH]c3ncc(F)cc23)c2cncnc21)C(=O)O` (stereo not drawn) [Compound C7]: 10 to 100 µM.
Take `CC(CC(=O)O)n1cc(-c2c[nH]c3ncc(F)cc23)c2cncnc21` (stereo not drawn) [Compound C8]: the IC50 is 10 to 100 µM.
The same measure for `CNC(=O)Cn1cc(-c2c[nH]c3ncc(F)cc23)c2cncnc21` [Compound C9]: 10 to 100 µM; for `CC(C(=O)O)n1cc(-c2c[nH]c3ncc(F)cc23)c2cncnc21` (stereo not drawn) [Compound C10]: > 100 µM.
Regarding `CNC(=O)CCn1cc(-c2c[nH]c3ncc(F)cc23)c2cncnc21` [Compound C11], the IC50 was > 100 µM.
As to `CC(=O)NCCn1cc(-c2c[nH]c3ncc(F)cc23)c2cncnc21` [Compound C12], the IC50 was > 100 µM.
Take `CC(C)(C)OC(=O)NCCn1cc(-c2c[nH]c3ncc(F)cc23)c2cncnc21` [Compound C13]: the IC50 is > 100 µM.
As for `CNC(=O)NCCn1cc(-c2c[nH]c3ncc(F)cc23)c2cncnc21` [Compound C14], the figure is > 100 µM; as for `COC(=O)NCCn1cc(-c2c[nH]c3ncc(F)cc23)c2cncnc21` [Compound C15], > 100 µM; as for `CN(C)C(=O)NCCn1cc(-c2c[nH]c3ncc(F)cc23)c2cncnc21` [Compound C16], > 100 µM.
As for `CCOC(=O)C(C)Cn1cc(-c2c[nH]c3ncc(F)cc23)c2cncnc21` (stereo not drawn) [Compound C17], the figure is > 100 µM.
